Results on five compounds are retold here after paper PMC10574094, “Discovery of a SHP2 Degrader with In Vivo Anti-Tumor Activity” (Molecules, 2023).

Molecules are shown by their SMILES. A value given as a limit tells only on which side of the number the result lay.

The IC50 is the point on the concentration scale where inhibition reaches its midpoint.

One assay addresses T1, full-length SHP2 (1-528) (Homo sapiens, UniProt Q06124).
T1 construct: The SHP2 protein (Aa 1–528) was cloned into a pET-21a(+) vector; His; made in house; host or cells: E. coli BL21(DE3)
T1 sequence (Q06124 1-528): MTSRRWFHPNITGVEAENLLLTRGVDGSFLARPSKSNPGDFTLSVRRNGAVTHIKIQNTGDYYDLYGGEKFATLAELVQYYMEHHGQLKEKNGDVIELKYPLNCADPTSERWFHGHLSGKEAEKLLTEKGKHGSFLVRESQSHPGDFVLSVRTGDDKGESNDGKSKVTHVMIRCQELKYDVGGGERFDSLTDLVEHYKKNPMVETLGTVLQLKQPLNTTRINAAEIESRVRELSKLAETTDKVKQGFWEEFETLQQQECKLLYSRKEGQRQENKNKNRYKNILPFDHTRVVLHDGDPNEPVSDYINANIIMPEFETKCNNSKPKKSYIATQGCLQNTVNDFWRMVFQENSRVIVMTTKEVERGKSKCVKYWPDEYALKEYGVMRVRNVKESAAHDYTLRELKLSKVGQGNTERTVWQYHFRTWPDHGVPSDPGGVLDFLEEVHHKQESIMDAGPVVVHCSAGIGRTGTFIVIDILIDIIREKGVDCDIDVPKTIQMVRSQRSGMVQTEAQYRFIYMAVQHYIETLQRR
Put plainly: SHP2 allosteric inhibition assay (DiFMUP substrate). The assay is classed as biochemical. The settings on record: full length SHP2, enzymatic assay. On the procedure: The SHP2 protein (Aa 1–528) was cloned into a pET-21a(+) vector. Bacterial BL21(DE3) (Novagen) was used as an expression host, and the induction of protein expression was carried out in LB media with 1 mM IPTG at 18 °C overnight. Cell pellets were stored at −80 °C for subsequent protein purification. Protein purification was conducted at 4 °C. Frozen cell pellets were lysed by sonication in 40 mL cold lysis buffer (50 mM Tris-HCl, pH 8.0, 150 mM NaCl, 5 mM imidazole, and 1 mM PMSF) per liter cell pellet. Cell lysates were clarified by centrifuging for 15 min at 6000 rpm. The supernatant was incubated with HisPur Ni-NTA resin (Thermo Scientific, Waltham, MA, USA) for 2 h, and then packed onto a column and washed with 50 resin volume of buffer A (50 mM Tris-HCl, pH 8.0, 500 mM NaCl, 5 mM imidazole). The HIS-tagged proteins were eluted with Buffer B (50 mM Tris-HCl, pH = 8.0, 500 mM NaCl, 300 mM imidazole,). Pooled HIS-protein-containing fractions were concentrated, loaded onto a HiLoad 26/600 Superdex 75 column (GE Healthcare Biosciences, Piscataway, NJ, USA), and eluted with storage buffer (50 mM Tris-HCl, pH 8.0, 150 mM NaCl, 1 mM DTT, 10% glycerol). Proteins used for inhibition assays were purified using Ni-NTA resin (Qiagen, Hilden, Germany) followed by size exclusion column chromatography (ÄKTA pure, Cytiva, Marlborough, MA, USA) and the purity was determined to be >95% by SDS-PAGE and Coomassie staining. The protein was aliquoted and stored at −80 °C.
The catalytic activity of SHP2 (1-528) was assayed with 6,8-Difluoro-4-Methylumbelliferyl Phosphate (DiFMUP, Invitrogen, cat# D6567) as a substrate in 3,3-Dimethylglutaric acid (DMG) buffer (50 mM DMG, pH 7.0, 1 mM EDTA, 18 mM NaCl, 0.01% Triton X-100) at 25 °C. To determine the IC50 values, the assays were performed in 96-well plates (Corning Costar 3915). Series diluted compounds were incubated with 0.5 nM of SHP2 and 0.5 μM of peptide IRS1_pY1172(dPEG8)pY1222 (sequence H2N-LN(pY)IDLDLV(dPEG8)LST(pY)ASINFQK-amide). After 30 min incubation at room temperature, the substrate DiFMUP was added to the reaction (200 μM final concentration, total reaction volume is […]) and incubated at 25 °C for 10 min. The reaction was then quenched by adding 40 μL of 160 μM bpV(Phen) (Sigma–Aldrich, cat# SML0889) solution. The fluorescence signal was monitored with a CLARIOstar Plus Microplate Spectrophotometer (BMG Labtech) using excitation and emission wavelengths of 340 and 450 nm, respectively. The inhibitordose-response curves were analyzed using normalized IC50 regression curve fitting with control-based normalization. Data were fitted using Prism GraphPad 9.2.0.

In the next assay the target is T2, SHP2 (Homo sapiens, UniProt Q06124).
T2 sequence (Q06124 1-593): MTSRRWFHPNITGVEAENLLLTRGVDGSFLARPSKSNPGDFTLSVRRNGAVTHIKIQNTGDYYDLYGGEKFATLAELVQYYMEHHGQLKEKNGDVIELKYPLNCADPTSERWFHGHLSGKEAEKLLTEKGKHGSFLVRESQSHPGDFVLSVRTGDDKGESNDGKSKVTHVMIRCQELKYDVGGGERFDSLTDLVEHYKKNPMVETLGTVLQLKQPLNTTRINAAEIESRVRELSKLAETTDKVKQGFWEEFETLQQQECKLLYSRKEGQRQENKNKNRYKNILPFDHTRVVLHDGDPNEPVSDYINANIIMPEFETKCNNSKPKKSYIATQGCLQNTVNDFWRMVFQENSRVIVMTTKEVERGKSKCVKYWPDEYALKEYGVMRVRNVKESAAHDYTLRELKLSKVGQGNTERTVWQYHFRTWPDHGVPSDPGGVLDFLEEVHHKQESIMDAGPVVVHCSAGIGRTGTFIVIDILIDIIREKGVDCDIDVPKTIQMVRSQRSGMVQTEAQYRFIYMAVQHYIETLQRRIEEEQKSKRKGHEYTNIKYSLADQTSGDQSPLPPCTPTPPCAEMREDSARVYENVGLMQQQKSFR
Nature of the assay: SHP2 degradation by Western blotting in HEK293 cells. Conditions: HEK293 cells; for SHP2 degradation (in words): 1 and 10 µM; for Degradation at 1 μM / Degradation at 10 μM: 16 h treatment. Set-up: endogenous in cells; host or cells: HEK293. The assay is classed as cell-based. As to the method: HEK293, SKBR3, U2OS, MCF7 and A549 cells were grown in DMEM supplemented with 10% FBS, penicillin (50 units/mL), and streptomycin (50 μg/mL) in a 37 °C incubator containing 5% CO2. […] For western-blot analysis, protein samples were separated by SDS-PAGE, transferred to nitrocellulose membranes, and incubated overnight at 4 °C with corresponding primary antibodies diluted in 5% BSA in phosphate-buffered saline Tween (PBST). SuperSignal™ West Pico PLUS (PI34580; Thermo Scientific) was used to visualize the antibodies in the bioanalytical imaging system (Azure Biosystems c500). […] Anti-PTP1B (ab244207) antibody was purchased from Abcam. For colony formation assay, a total of approximately 200–500 cells were seeded to each well in a 12-well plate.
Supplemental Figures, Schemes, and Tables:
Figure S1. Western blots of degradation assay for PROTAC screening. (A) Degradation assay of
compo un ds i n Table 1 at 1 μM fo r 16 hours in H EK29 3 cells. (B) Degradation assay of compounds in Table
1 at 10 μM for 16 hours in HEK293 cells. (C) Degradation assay of compounds in Table 2 at 1 μM for 16
(Immunoblotting shows a protein as a band on a membrane.)

Turning to `Cc1ncsc1-c1ccc([C@H](C)NC(=O)[C@@H]2C[C@@H](O)CN2C(=O)[C@@H](NC(=O)CCOCCOCCOCCOCCOCCNC(=O)CCCCCC2(CN)CCN(c3cnc(Sc4cccc(Cl)c4Cl)c(N)n3)CC2)C(C)(C)C)cc1` [P5, (2S,4R)-1-((S)-28-(1-(6-amino-5-((2,3-dichlorophenyl)thio)pyrazin-2-yl)-4-(aminomethyl)piperidin-4-yl)-2-(tert-butyl)-4,23-dioxo-7,10,13,16,19-pentaoxa-3,22-diazaoctacosanoyl)-4-hydroxy-N-((S)-1-(4-(4-methylthiazol-5-yl)phenyl)ethyl)pyrrolidine-2-carboxamide], half-maximal inhibition against full-length SHP2 (1-528) (IC50) was put at 166 ± 11.9 nM. At SHP2, the “SHP2 degradation (in words)” value is reported as “did not induce significant degradation of SHP2”, the “Degradation at 1 μM” value is listed as less than 10% and the “Degradation at 10 μM” value is less than 10%.

`Cc1ncsc1-c1ccc([C@H](C)NC(=O)[C@@H]2C[C@@H](O)CN2C(=O)[C@@H](NC(=O)CCCCCNC(=O)CCCCCC2(CN)CCN(c3cnc(Sc4cccc(Cl)c4Cl)c(N)n3)CC2)C(C)(C)C)cc1` [SC5, (2S,4R)-1-((S)-2-(6-(6-(1-(6-amino-5-((2,3-dichlorophenyl)thio)pyrazin-2-yl)-4-(aminomethyl)piperidin-4-yl)hexanamido)hexanamido)-3,3-dimethylbutanoyl)-4-hydroxy-N-((S)-1-(4-(4-methylthiazol-5-yl)phenyl)ethyl)pyrrolidine-2-carboxamide] returned a concentration for half-maximal inhibition (IC50) against full-length SHP2 (1-528) of 139 ± 10.4 nM. Besides, on SHP2, the “SHP2 degradation (in words)” value is given as “negligible to modest degradation”, the “Degradation at 1 μM” value was less than 10% and the “Degradation at 10 μM” value was less than 10%.

Turning to `Cc1ncsc1-c1ccc([C@H](C)NC(=O)[C@@H]2C[C@@H](O)CN2C(=O)[C@@H](NC(=O)CCCCCCCNC(=O)CCCCCC2(CN)CCN(c3cnc(Sc4cccc(Cl)c4Cl)c(N)n3)CC2)C(C)(C)C)cc1` [SC7, (2S,4R)-1-((S)-2-(8-(6-(1-(6-amino-5-((2,3-dichlorophenyl)thio)pyrazin-2-yl)-4-(aminomethyl)piperidin-4-yl)hexanamido)octanamido)-3,3-dimethylbutanoyl)-4-hydroxy-N-((S)-1-(4-(4-methylthiazol-5-yl)phenyl)ethyl)pyrrolidine-2-carboxamide], the midpoint of inhibition against full-length SHP2 (1-528), the IC50, lay at 124 ± 21.6 nM. Further, at SHP2, the “SHP2 degradation (in words)” value is reported as “negligible to modest degradation”, the “Degradation at 1 μM” value was less than 10% and the “Degradation at 10 μM” value was 15%.

Regarding `Cc1ncsc1-c1ccc([C@H](C)NC(=O)[C@@H]2C[C@@H](O)CN2C(=O)[C@@H](NC(=O)CCCCCCCCCNC(=O)CCCCCC2(CN)CCN(c3cnc(Sc4cccc(Cl)c4Cl)c(N)n3)CC2)C(C)(C)C)cc1` [SC9, (2S,4R)-1-((S)-2-(10-(6-(1-(6-amino-5-((2,3-dichlorophenyl)thio)pyrazin-2-yl)-4-(aminomethyl)piperidin-4-yl)hexanamido)decanamido)-3,3-dimethylbutanoyl)-4-hydroxy-N-((S)-1-(4-(4-methylthiazol-5-yl)phenyl)ethyl)pyrrolidine-2-carboxamide], the IC50 against full-length SHP2 (1-528) was 132 ± 8.7 nM. Also, on SHP2, the “SHP2 degradation (in words)” value is on record as “negligible to modest degradation” and the “Degradation at 10 μM” value turned out to be 25%.

The compound `Cc1ncsc1-c1ccc([C@H](C)NC(=O)[C@@H]2C[C@@H](O)CN2C(=O)[C@@H](NC(=O)CCCCCCCCCCNC(=O)CCCCCC2(CN)CCN(c3cnc(Sc4cccc(Cl)c4Cl)c(N)n3)CC2)C(C)(C)C)cc1` [SC10, (2S,4R)-1-((S)-2-(11-(6-(1-(6-amino-5-((2,3-dichlorophenyl)thio)pyrazin-2-yl)-4-(aminomethyl)piperidin-4-yl)hexanamido)undecanamido)-3,3-dimethylbutanoyl)-4-hydroxy-N-((S)-1-(4-(4-methylthiazol-5-yl)phenyl)ethyl)pyrrolidine-2-carboxamide] yielded an IC50 at full-length SHP2 (1-528) of 122 ± 19.1 nM. The “Degradation at 1 μM” value on SHP2 is 36%.
